Results published in PMC3970981 (Nature chemical biology, 2013).
Converted amounts (≈) assume the structure as drawn.

What was measured:
[1] = molecular target: BioA (7,8-diaminopelargonic acid synthase) (Escherichia coli, UniProt P12995); test: recombinant BioA activity, bioA auxotroph feeding assay at […]; format: biochemical
E. coli MG1655 = test: microbe, parasite or virus in culture; details: Escherichia coli, MG1655, 16 h, read-out: MIC (μg/ml) ^a / −bio

Sequence of BioA (7,8-diaminopelargonic acid synthase) (P12995 whole entry): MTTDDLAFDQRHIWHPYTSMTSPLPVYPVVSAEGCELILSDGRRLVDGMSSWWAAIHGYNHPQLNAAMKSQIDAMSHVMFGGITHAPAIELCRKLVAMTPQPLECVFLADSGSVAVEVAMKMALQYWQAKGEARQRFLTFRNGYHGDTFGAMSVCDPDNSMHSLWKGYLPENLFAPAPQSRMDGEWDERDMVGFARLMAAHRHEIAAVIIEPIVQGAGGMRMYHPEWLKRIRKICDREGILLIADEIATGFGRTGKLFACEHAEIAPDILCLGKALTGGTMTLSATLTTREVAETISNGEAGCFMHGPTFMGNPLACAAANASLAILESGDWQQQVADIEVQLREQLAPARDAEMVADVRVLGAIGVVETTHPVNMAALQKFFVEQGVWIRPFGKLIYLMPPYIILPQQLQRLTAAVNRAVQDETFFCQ

SMILES | MIC (E. coli MG1655) | further results
NNC(=O)CSc1ccc([N+](=O)[O-])cc1 [compound 6] | – | % Inhibition ^b / 1 μM / 100 [1]: 66
CC(=O)NN [compound 23] | 128 µg/mL (≈ 1730 µM) | –
NNC(=O)CSc1cccc([N+](=O)[O-])c1 [compound 5] | – | % Inhibition ^b / 10 μM / 100 [1]: 84
CCCC(=O)NN [compound 21] | > 256 µg/mL | –
